From patent publication US10889555B2, “Sulfonamide compound or salt thereof” (Taiho Pharmaceutical Co., Ltd., priority 2016, dated 2021)

Tested on: HCC 1806 cells
Assay: Cell proliferation inhibitory effect on human breast cancer cell line (crystal violet, 72 hours)
Assay type: cell-based
Conditions: Homo sapiens, HCC1806, 72 h, read-out: Cell growth suppression IC50
Summary of the method: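 Cells were seeded at 2,000/well in RPMI-1640 with 10% FBS and grown 1 day, then exposed to compound for 72 h at 37° C, 5% CO2. After glutaraldehyde fixation and 0.05% crystal violet staining, extracted dye was read at 540 nm. IC50 (μM) came from growth inhibition relative to untreated and cell-free wells.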

| Structure (SMILES) | IC50 |
| --- | --- |
| Cc1cc(F)c(F)c([C@@H](C)[C@H](NS(=O)(=O)c2ccc(Cl)cc2C(N)=O)c2n[nH]c(=O)o2)c1C [Example 13, 5-chloro-2-(N-((1S,2R)-2-(2,3-difluoro-5,6-dimethylphenyl)-1-(5-oxo-4,5-dihydro-1,3,4-oxadiazol-2-yl)propyl)sulfamoyl)benzamide] | 310 nM |
| COc1c(S(=O)(=O)N[C@H](c2n[nH]c(=O)o2)[C@H](C)c2c(F)ccc(C)c2C)ncc(Cl)c1C(C)O (stereo partly drawn) [Example 216, 5-chloro-N-((1S,2R)-2-(6-fluoro-2,3-dimethylphenyl)-1-(5-oxo-4,5-dihydro-1,3,4-oxadiazol-2-yl)propyl)-4-(1-hydroxyethyl)-3-methoxypyridine-2-sulfonamide] | 670 nM |
| Cc1ccc(F)c([C@@H](C)[C@H](NS(=O)(=O)c2ccc(Cl)c3c2OCC(=O)N3C)c2n[nH]c(=O)o2)c1C [Example 93, 5-chloro-N-((1S,2R)-2-(6-fluoro-2,3-dimethylphenyl)-1-(5-oxo-4,5-dihydro-1,3,4-oxadiazol-2-yl)propyl)-4-methyl-3-oxo-3,4-dihydro-2H-benzo[b][1,4]oxazine-8-sulfonamide] | 280 nM |
| Cc1ccc(F)c([C@@H](C)[C@H](NS(=O)(=O)c2ccc(F)c(C(C)(C)O)c2F)c2n[nH]c(=O)o2)c1C [Example 186, 2,4-difluoro-N-((1S,2R)-2-(6-fluoro-2,3-dimethylphenyl)-1-(5-oxo-4,5-dihydro-1,3,4-oxadiazol-2-yl)propyl)-3-(2-hydroxypropan-2-yl)benzenesulfonamide] | 640 nM |
| Cc1ccc(F)c([C@@H](C)[C@H](NS(=O)(=O)c2ccc(Cl)cc2OC(F)F)c2n[nH]c(=O)o2)c1C [Example 146, 4-chloro-2-(difluoromethoxy)-N-((1S,2R)-2-(6-fluoro-2,3-dimethylphenyl)-1-(5-oxo-4,5-dihydro-1,3,4-oxadiazol-2-yl)propyl)benzenesulfonamide] | 830 nM |
| CC(=O)NC1CCOc2c(S(=O)(=O)N[C@H](c3n[nH]c(=O)o3)[C@H](C)c3c(F)ccc(C)c3C)ccc(Cl)c21 (stereo partly drawn) [Example 157, N-(5-chloro-8-(N-((1S,2R)-2-(6-fluoro-2,3-dimethylphenyl)-1-(5-oxo-4,5-dihydro-1,3,4-oxadiazol-2-yl)propyl)sulfamoyl)chroman-4-yl)acetamide] | 370 nM |
| Cc1c(Cl)ccc(F)c1[C@@H](C)[C@H](NS(=O)(=O)c1ccc(Br)cc1C(N)=O)c1n[nH]c(=O)o1 [Example 25, 5-bromo-2-(N-((1S,2R)-2-(3-chloro-6-fluoro 2 methylphenyl)-1-(5-oxo-4,5-dihydro-1,3,4-oxadiazol-2-yl)propyl)sulfamoyl)benzamide] | 590 nM |
| Cc1ccc(F)c([C@@H](C)[C@H](NS(=O)(=O)c2ccc(Cl)c(C(=O)N3C4CCC3COC4)n2)c2n[nH]c(=O)o2)c1C [Example 116, 6-(3-oxa-8-azabicyclo[3.2.1]octane-8-carbonyl)-5-chloro-N-((1S,2R)-2-(6-fluoro-2,3-dimethylphenyl)-1-(5-oxo-4,5-dihydro-1,3,4-oxadiazol-2-yl)propyl)pyridine-2-sulfonamide] | 320 nM |
| Cc1ccc(F)c([C@@H](C)[C@H](NS(=O)(=O)c2cc(C(C)(C)O)c(Cl)cc2C(N)=O)c2n[nH]c(=O)o2)c1C [Example 198, 5-chloro-2-(N-((1S,2R)-2-(6-fluoro-2,3-dimethylphenyl)-1-(5-oxo-4,5-dihydro-1,3,4-oxadiazol-2-yl)propyl)sulfamoyl)-4-(2-hydroxypropan-2-yl)benzamide] | 50 nM |
| Cc1ccc(F)c([C@@H](C)[C@H](NS(=O)(=O)c2c(F)cc(Cl)cc2C(N)=O)c2n[nH]c(=O)o2)c1C [Example 258, 5-chloro-3-fluoro-2-(N-((1S,2R)-2-(6-fluoro-2,3-dimethylphenyl)-1-(5-oxo-4,5-dihydro-1,3,4-oxadiazol-2-yl)propyl)sulfamoyl)benzamide] | 580 nM |
| Cc1ccc(F)c([C@@H](C)[C@H](NS(=O)(=O)c2ccc(Cl)c(C(C)(C)O)n2)c2n[nH]c(=O)o2)c1C [Example 193, 5-chloro-N-((1S,2R)-2-(6-fluoro-2,3-dimethylphenyl)-1-(5-oxo-4,5-dihydro-1,3,4-oxadiazol-2-yl)propyl)-6-(2-hydroxypropan-2-yl)pyridine-2-sulfonamide] | 110 nM |
| Cc1ccc(S(=O)(=O)N[C@H](c2n[nH]c(=O)o2)[C@H](C)c2c(F)ccc3ccccc23)c(C(N)=O)c1 [Example 12, 2-(N-((1S,2R)-2-(2-Fluoronaphthalen-1-yl)-1-(5-oxo-4,5-dihydro-1,3,4-oxadiazol-2-yl)propyl)sulfamoyl)-5-methylbenzamide] | 500 nM |
| Cc1ccc(F)c([C@@H](C)[C@H](NS(=O)(=O)c2cc(F)c(Cl)cc2C(N)=O)c2n[nH]c(=O)o2)c1C [Example 255, 5-chloro-4-fluoro-2-(N-((1S,2R)-2-(6-fluoro-2,3-dimethylphenyl)-1-(5-oxo-4,5-dihydro-1,3,4-oxadiazol-2-yl)propyl)sulfamoyl)benzamide] | 480 nM |
| Cc1c(Br)ccc(F)c1[C@@H](C)[C@H](NS(=O)(=O)c1ccc(Br)cc1C(N)=O)c1n[nH]c(=O)o1 [Example 35, 5-bromo-2-(N-((1S,2R)-2-(3-bromo-6-fluoro-2-methylphenyl)-1-(5-oxo-4,5-dihydro-1,3,4-oxadiazol-2-yl)propyl)sulfamoyl)benzamide] | 670 nM |
| COc1c(S(=O)(=O)N[C@H](c2n[nH]c(=O)o2)[C@H](C)c2cccc(C)c2C)ccc(Cl)c1C(C)O (stereo partly drawn) [Example 203, 4-chloro-N-((1S,2R)-2-(2,3-dimethylphenyl)-1-(5-oxo-4,5-dihydro-1,3,4-oxadiazol-2-yl)propyl)-3-(1-hydroxyethyl)-2-methoxybenzenesulfonamide] | 810 nM |
| Cc1ccc(F)c([C@@H](C)[C@H](NS(=O)(=O)c2cc([N+](=O)[O-])c(Cl)cc2C(N)=O)c2n[nH]c(=O)o2)c1C [Example 262, 5-chloro-2-(N-((1S,2R)-2-(6-fluoro-2,3-dimethylphenyl)-1-(5-oxo-4,5-dihydro-1,3,4-oxadiazol-2-yl)propyl)sulfamoyl)-4-nitrobenzamide] | 170 nM |
| CCc1ccc(S(=O)(=O)N[C@H](c2n[nH]c(=O)o2)[C@H](C)c2c(F)ccc(C)c2C)c(C(N)=O)c1 [Example 18, 5-Ethyl-2-(N-((1S,2R)-2-(6-fluoro-2,3-dimethylphenyl)-1-(5-oxo-4,5-dihydro-1,3,4-oxadiazol-2-yl)propyl)sulfamoyl)benzamide] | 580 nM |

Further lines, results first:

| IC50 | Structure (SMILES) |
| --- | --- |
| 720 nM | Cc1ccc(F)c([C@@H](C)[C@H](NS(=O)(=O)c2ccc(C(F)(F)F)c3c2OCCC3O)c2n[nH]c(=O)o2)c1C (single isomer, unassigned) [Example 244A] |
| 440 nM | Cc1c(Cl)ccc(F)c1[C@@H](C)[C@H](NS(=O)(=O)c1ccc(Cl)c2c1OCCC2O)c1n[nH]c(=O)o1 (single isomer, unassigned) [Example 238A] |
| 570 nM | C[C@H](c1c(F)ccc2ccccc12)[C@H](NS(=O)(=O)c1ccc(Cl)c2c1OCCC2O)c1n[nH]c(=O)o1 (single isomer, unassigned) [Example 234A] |

Same assay, conditions: read-out: Cell growth suppression IC50

| IC50 | Structure (SMILES) |
| --- | --- |
| 70 nM | Cc1ccc(F)c([C@@H](C)[C@H](NS(=O)(=O)c2ccc(Cl)c3c2OCCC3(C)O)c2n[nH]c(=O)o2)c1C (single isomer, unassigned) [Example 207A] |
| 80 nM | [2H]C([2H])([2H])C1(O)CCOc2c(S(=O)(=O)N[C@H](c3n[nH]c(=O)o3)[C@H](C)c3c(F)ccc(Br)c3C)ccc(Cl)c21 (single isomer, unassigned) [Example 226A] |
| 290 nM | Cc1c(Br)ccc(F)c1[C@@H](C)[C@H](NS(=O)(=O)c1ccc(Cl)c2c1OCCC2O)c1n[nH]c(=O)o1 (single isomer, unassigned) [Example 243A] |
| 330 nM | COc1c(S(=O)(=O)N[C@H](c2n[nH]c(=O)o2)[C@H](C)c2c(F)ccc(C)c2C)ccc(Cl)c1C(C)O (single isomer, unassigned) [Example 208A] |
